Data published in ChEMBL document CHEMBL4673334, “In Vivo Biological Evaluation of a Synthetic Royleanone Derivative as a Promising Fast-Acting Trypanocidal Agent by Inducing Mitochondrial-Dependent Necrosis” (J Nat Prod, 2020).
Active and inactive are the calls of the source. No cut-off for these calls is given here.

Legend:
Trypanosoma cruzi [1] = experiment: Inhibition of Trypanosoma cruzi MHOM/Pe/2011/Arequipa(DTU V) epimastigote form Fe-SOD at 25 uM by UV-VIS spectrophotometric method relative to control
Trypanosoma cruzi [2] = experiment: Antitrypanosomal activity against Trypanosoma cruzi MHOM/Pe/2011/Arequipa(DTU V) amastigote form infected in BALB/c mouse assessed as reduction in parasitaemia at 20 mg/kg, po for 5 days starting at 9 days post infection and measured after 7 days post infection relative to control; format: functional; design: scale not given: the % may be the effect or the level left; conditions: time 5 day
Trypanosoma cruzi [3] = experiment: Antitrypanosomal activity against Trypanosoma cruzi MHOM/Pe/2011/Arequipa(DTU V) amastigote form infected in BALB/c mouse assessed as reduction in spleen enlargement at 20 mg/kg, po administered for 5 days starting at 100 days post infection and measured after 145 days post infection; format: functional, organism-based; conditions: time 5.0 day
Trypanosoma cruzi [4] = experiment: Antitrypanosomal activity against Trypanosoma cruzi MHOM/Pe/2011/Arequipa(DTU V) amastigote form infected in BALB/c mouse assessed as reduction in parasite growth at 20 mg/kg, po administered for 5 days starting at 9 days post infection and measured up to 106 days post infection by ELISA assay; format: functional, organism-based; conditions: time 5.0 day
Trypanosoma cruzi [5] = experiment: Inhibition of Trypanosoma cruzi MHOM/Pe/2011/Arequipa(DTU V) epimastigote form Fe-SOD at 12.5 uM by UV-VIS spectrophotometric method relative to control
Trypanosoma cruzi [6] = experiment: Antitrypanosomal activity against Trypanosoma cruzi MHOM/Pe/2011/Arequipa(DTU V) amastigote form infected in BALB/c mouse assessed as reduction in spleen enlargement at 20 mg/kg, po administered for 5 days starting at 9 days post infection and measured after 145 days post infection; format: functional, organism-based; conditions: time 5.0 day
Trypanosoma cruzi [7] = experiment: Antitrypanosomal activity against Trypanosoma cruzi MHOM/Pe/2011/Arequipa(DTU V) amastigote form infected in BALB/c mouse assessed as reduction in parasitaemia at 20 mg/kg, po for 5 days starting at 9 days post infection and measured after 13 to 35 days post infection; format: functional, organism-based; conditions: time 5.0 day

Question: What does the source list for COC(=O)[C@]1(C)CCC[C@]2(C)C3=C(C=C[C@@H]12)C(=O)C(C(C)C)=CC3=O?
Answer: inhibition (Trypanosoma cruzi [1]): 100%; Activity (Trypanosoma cruzi [2]): 65%; Activity (Trypanosoma cruzi [3]): Active; Activity (Trypanosoma cruzi [4]): Active; inhibition (Trypanosoma cruzi [5]): 80%; Activity (Trypanosoma cruzi [6]): Active; Activity (Trypanosoma cruzi [7]): Active
